Experiments:
Assay type in all cases: in vivo
[1] = system: green peach aphid (Myzus persicae); experiment: Insecticidal test for green peach aphid in foliar spray assay on cabbage seedlings
Description: Insecticidal Test for Green Peach Aphid (Myzus persicae) in Foliar Spray Assay
Cabbage seedlings grown in 3-inch pots, with 2-3 small (3-5 cm) true leaves, were used as test substrate. The seedlings were infested with 20-50 green peach aphids (wingless adult and nymph) one day prior to chemical application. Four pots with individual seedlings were used for each treatment. Compounds (2 mg) were dissolved in 2 mL of acetone/methanol (1:1) solvent, forming stock solutions of 1000 ppm. The stock solutions were diluted 5× with 0.025% Tween 20 in H2O to obtain the solution at 200 ppm. A hand-held Devilbiss sprayer was used for spraying a solution to both sides of cabbage leaves until runoff. Reference plants (solvent check) were sprayed with the diluent only. Treated plants were held in a holding room for three days at approximately 25° C. and 40% relative humidity (RH) prior to grading. Evaluation was conducted by counting the number of live aphids per plant under a microscope. Insecticidal activity was measured by using Abbott's correction formula are presented in Table 2: Corrected % Control=100*(X−Y)/X
where • X=No. of live aphids on solvent check plants • Y=No. of live aphids on treated plants

[2] = system: beet armyworm (BAW; Spodoptera exigua: Lepidoptera); experiment: Insecticidal test for beet armyworm, 128-well diet tray assay
Description: Insecticidal Test for Beet Armyworm (Spodoptera exigua)
(§1) Bioassays on beet armyworm (BAW; Spodoptera exigua: Lepidoptera) were conducted using a 128-well diet tray assay. Three to five second instar BAW larvae were placed in each well (3 mL) of the diet tray that had been previously filled with 1 mL of artificial diet to which 50 μg/cm^2 of the test compound (dissolved in 50 μL of 90:10 acetone-water mixture) had been applied (to each of eight wells) and then allowed to dry. Trays were covered with a clear self-adhesive cover, and held at 25° C., 14:10 light-dark for six days. Percent mortality was recorded for the larvae in each well; activity in the eight wells was then averaged.

[3] = system: corn earworm (CEW; Helicoverpa zea: Lepidoptera); experiment: Insecticidal test for corn earworm, 128-well diet tray assay
Description: Insecticidal Test for Corn Earworm (Helicoverpa zea)
as §1, with “corn earworm (CEW; Helicoverpa zea:” for “beet armyworm (BAW; Spodoptera exigua:”, “CEW” for “BAW”

Compound	% Mortality GPA 200 ppm [1]	% Mortality BAW 50 μg/cm^2 [2]	% Mortality CEW 50 μg/cm^2 [3]
CC(C)(C)OC(=O)Nc1ccc(-c2ncn(-c3ccc(OC(F)(F)C(F)(F)F)cc3)n2)cc1 [Compound 1, {4-[1-(4-pentafluoroethyloxyphenyl)-1H-[1,2,4]triazol-3-yl]-phenyl}-carbamic acid tert-butyl ester]	B (Less than 80)	A (50-100)	A (50-100)
CO[C@@H]1O[C@@H](C)[C@H](OC)[C@@H](OC(=O)Nc2ccc(-c3ncn(-c4ccc(OC(F)(F)F)cc4)n3)cc2)[C@H]1OC [Compound 2]	B (Less than 80)	A (50-100)	B (Less than 50)
CCOc1cnc(C(C)(C)OC(=O)Nc2ccc(-c3ncn(-c4ccc(OC(F)(F)F)cc4)n3)cc2)nc1 [Compound 3, {4-[1-(4-trifluoromethoxyphenyl)-1H-[1,2,4]triazol-3-yl]-phenyl}-carbamic acid 1-(5-ethoxy-pyrimidin-2-yl)-1-methyl-ethyl ester]	B (Less than 80)	A (50-100)	B (Less than 50)
CC1(OC(=O)Nc2ccc(-c3ncn(-c4ccc(OC(F)(F)F)cc4)n3)cc2)CCCCC1 [Compound 4]	B (Less than 80)	B (Less than 50)	B (Less than 50)
COCC(C)(C)OC(=O)Nc1ccc(-c2ncn(-c3ccc(OC(F)(F)F)cc3)n2)cc1 [Compound 5]	B (Less than 80)	A (50-100)	A (50-100)
CCCC(C)(C)OC(=O)Nc1ccc(-c2ncn(-c3ccc(OC(F)(F)F)cc3)n2)cc1 [Compound 6]	B (Less than 80)	A (50-100)	B (Less than 50)
CCOC(=O)c1csc(C(=O)C(C)(C)OC(=O)Nc2ccc(-c3ncn(-c4ccc(OC(F)(F)F)cc4)n3)cc2)n1 [Compound 7]	B (Less than 80)	B (Less than 50)	B (Less than 50)
CC(C)(OC(=O)Nc1ccc(-c2ncn(-c3ccc(OC(F)(F)F)cc3)n2)cc1)C(F)(F)F [Compound 8]	B (Less than 80)	A (50-100)	A (50-100)
CCCCC(C)OC(=O)Nc1ccc(-c2ncn(-c3ccc(OC(F)(F)F)cc3)n2)cc1 (stereo not drawn) [Compound 9, {4-[1-(4-trifluoromethoxyphenyl)-1H-[1,2,4]triazol-3-yl]-phenyl}-carbamic acid 1-methyl-pentyl ester]	B (Less than 80)	A (50-100)	A (50-100)
CC(C)OC(=O)Nc1ccc(-c2ncn(-c3ccc(OC(F)(F)C(F)(F)F)cc3)n2)cc1 [Compound 10]	B (Less than 80)	A (50-100)	B (Less than 50)
CC(C)(Cc1ccccc1)OC(=O)Nc1ccc(-c2ncn(-c3ccc(OC(F)(F)F)cc3)n2)cc1 [Compound 11, {4-[1-(4-trifluoromethoxyphenyl)-1H-[1,2,4]triazol-3-yl]-phenyl}-carbamic acid 1,1-dimethyl-2-phenyl-ethyl ester]	B (Less than 80)	A (50-100)	A (50-100)
C#CC(C)(C)OC(=O)Nc1ccc(-c2ncn(-c3ccc(OC(F)(F)F)cc3)n2)cc1 [Compound 12, {4-[1-(4-trifluoromethoxyphenyl)-1H-[1,2,4]triazol-3-yl]-phenyl}-carbamic acid 1,1-dimethyl-prop-2-ynyl ester]	B (Less than 80)	A (50-100)	A (50-100)
C#CC(C)(C)OC(=O)Nc1ccc(-c2ncn(-c3ccc(C(F)(F)F)cc3)n2)cc1 [Compound 13, {4-[1-(4-trifluoromethylphenyl)-1H-[1,2,4]triazol-3-yl]-phenyl}-carbamic acid 1,1-dimethyl-prop-2-ynyl ester]	B (Less than 80)	A (50-100)	A (50-100)
CC(C)(C#N)OC(=O)Nc1ccc(-c2ncn(-c3ccc(OC(F)(F)F)cc3)n2)cc1 [Compound 14, {4-[1-(4-trifluoromethoxyphenyl)-1H-[1,2,4]triazol-3-yl]-phenyl}-carbamic acid cyano-dimethyl-methyl ester]	–	B (Less than 50)	B (Less than 50)
CC(OC(=O)Nc1ccc(-c2ncn(-c3ccc(OC(F)(F)F)cc3)n2)cc1)C1CC1 (stereo not drawn) [Compound 15, 4 {4-[1-(4-trifluoromethoxyphenyl)-1H-[1,2,4]triazol-3-yl]-phenyl}-carbamic acid 1-cyclopropyl-ethyl ester]	B (Less than 80)	A (50-100)	A (50-100)
CC(OC(=O)Nc1ccc(-c2ncn(-c3ccc(OC(F)(F)F)cc3)n2)cc1)C1CCCCC1 (stereo not drawn) [Compound 16]	B (Less than 80)	B (Less than 50)	B (Less than 50)
CCOC(=O)CC(C)OC(=O)Nc1ccc(-c2ncn(-c3ccc(OC(F)(F)F)cc3)n2)cc1 (stereo not drawn) [Compound 17]	B (Less than 80)	B (Less than 50)	A (50-100)
COCCOCC(C)(C)OC(=O)Nc1ccc(-c2ncn(-c3ccc(OC(F)(F)F)cc3)n2)cc1 [Compound 18]	B (Less than 80)	A (50-100)	A (50-100)
C=CC(C)(C)OC(=O)Nc1ccc(-c2ncn(-c3ccc(OC(F)(F)F)cc3)n2)cc1 [Compound 19]	B (Less than 80)	A (50-100)	A (50-100)
CCOC(=O)C(C)(C)OC(=O)Nc1ccc(-c2ncn(-c3ccc(OC(F)(F)F)cc3)n2)cc1 [Compound 20]	B (Less than 80)	A (50-100)	A (50-100)
CC(C)(OC(=O)Nc1ccc(-c2ncn(-c3ccc(OC(F)(F)F)cc3)n2)cc1)c1ccccc1 [Compound 21]	B (Less than 80)	A (50-100)	A (50-100)
COc1ccc(CC(C)OC(=O)Nc2ccc(-c3ncn(-c4ccc(OC(F)(F)F)cc4)n3)cc2)cc1 (stereo not drawn) [Compound 22]	B (Less than 80)	A (50-100)	A (50-100)
CCCCC(OC(=O)Nc1ccc(-c2ncn(-c3ccc(OC(F)(F)F)cc3)n2)cc1)C(=O)OCC (stereo not drawn) [Compound 26, 2-{4-[1-(4-trifluoromethoxyphenyl)-1H-[1,2,4]triazol-3-yl]-phenylcarbamoyloxy}-hexanoic acid ethyl ester]	–	A (50-100)	A (50-100)
C[C@H](OC(=O)Nc1ccc(-c2ncn(-c3ccc(OC(F)(F)F)cc3)n2)cc1)c1ccccc1 [Compound 60]	–	A (50-100)	A (50-100)
C[C@@H](OC(=O)Nc1ccc(-c2ncn(-c3ccc(OC(F)(F)F)cc3)n2)cc1)c1ccccc1 [Compound 61]	–	A (50-100)	A (50-100)
O=C(Nc1ccc(-c2ncn(-c3ccc(OC(F)(F)F)cc3)n2)cc1)Oc1cccc(C(F)(F)F)c1 [Compound 125]	B (Less than 80)	–	–
O=C(Nc1ccc(-c2ncn(-c3ccc(OC(F)(F)F)cc3)n2)cc1)Oc1ccc(C(F)(F)F)cc1 [Compound 126]	B (Less than 80)	–	–
O=C(Nc1ccc(-c2ncn(-c3ccc(OC(F)(F)F)cc3)n2)cc1)Oc1ccc(F)cc1 [Compound 127]	B (Less than 80)	–	–
CN(C(=O)OC(C)(C)C)c1ccc(-c2ncn(-c3ccc(OC(F)(F)F)cc3)n2)cc1 [Compound 131, tert-butyl methyl(4-(1-(4-(trifluoromethoxy)phenyl)-1H-1,2,4-triazol-3-yl)phenyl)carbamate]	B (Less than 80)	–	–
